Source: US20090304692A1, “TRIAZINE COMPOUNDS AS PI3 KINASE AND MTOR INHIBITORS” (Wyeth, priority 2008, published 2009)
pIC50: −log10 of the molar value. Several values for one entry are separate records, joined by “and”; a condition that tells them apart may be missing. Equal values may be shown once. Read-outs that look alike come from different tables or passages of the source.

Columns and labels:
Human mTOR (FLAG-TOR) = Human mTOR (FLAG-TOR) (Homo sapiens, UniProt P42345); assay: mTOR kinase assay (DELFIA format, purified enzyme); format: biochemical
Human mTOR (FLAG-TOR), sequence (P42345 1360-2549 limits assumed): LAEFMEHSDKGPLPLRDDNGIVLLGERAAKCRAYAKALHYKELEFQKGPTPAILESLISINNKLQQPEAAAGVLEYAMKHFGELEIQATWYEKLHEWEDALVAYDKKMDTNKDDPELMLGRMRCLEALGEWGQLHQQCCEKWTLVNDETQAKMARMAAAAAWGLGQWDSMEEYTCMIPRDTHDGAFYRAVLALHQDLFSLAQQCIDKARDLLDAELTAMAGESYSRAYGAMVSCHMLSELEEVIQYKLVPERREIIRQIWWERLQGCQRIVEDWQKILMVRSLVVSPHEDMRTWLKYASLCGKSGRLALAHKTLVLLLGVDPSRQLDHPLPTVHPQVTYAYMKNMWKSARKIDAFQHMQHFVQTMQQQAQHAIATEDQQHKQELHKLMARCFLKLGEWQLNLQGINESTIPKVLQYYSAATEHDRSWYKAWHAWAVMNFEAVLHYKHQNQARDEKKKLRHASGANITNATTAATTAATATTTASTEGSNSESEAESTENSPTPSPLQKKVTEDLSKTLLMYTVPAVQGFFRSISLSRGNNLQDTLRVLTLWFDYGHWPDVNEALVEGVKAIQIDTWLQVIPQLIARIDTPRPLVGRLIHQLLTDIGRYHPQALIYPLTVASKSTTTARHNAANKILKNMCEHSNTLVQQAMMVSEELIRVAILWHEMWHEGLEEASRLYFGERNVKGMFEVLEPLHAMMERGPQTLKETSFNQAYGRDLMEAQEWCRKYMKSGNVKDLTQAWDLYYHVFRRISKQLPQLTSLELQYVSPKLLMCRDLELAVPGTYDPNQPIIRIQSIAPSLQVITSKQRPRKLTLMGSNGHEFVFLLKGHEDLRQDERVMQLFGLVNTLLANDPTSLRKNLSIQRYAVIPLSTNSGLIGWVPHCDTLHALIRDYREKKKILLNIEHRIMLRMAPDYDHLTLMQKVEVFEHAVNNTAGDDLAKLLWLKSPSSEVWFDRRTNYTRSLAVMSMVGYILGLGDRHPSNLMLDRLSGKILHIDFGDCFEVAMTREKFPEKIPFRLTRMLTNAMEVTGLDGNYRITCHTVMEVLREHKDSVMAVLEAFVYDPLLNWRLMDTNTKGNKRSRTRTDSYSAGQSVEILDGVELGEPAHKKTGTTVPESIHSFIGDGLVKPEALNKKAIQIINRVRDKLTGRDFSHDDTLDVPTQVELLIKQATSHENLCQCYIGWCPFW

[1] = tested on: human breast MDA-MB-361 tumor cell line; assay: In vitro cell culture growth assay (MTS), MDA-MB-361; format: cell-based; settings: Homo sapiens, read-out: IC50 MDA-MB-361
[2] = tested on: human prostate PC3-mm2 tumor cell line; assay: In vitro cell culture growth assay (MTS), PC3-mm2; format: cell-based; settings: Homo sapiens, PC3MM2, 72 h, read-out: IC50 PC3-mm2
PI3K-α = PI3K-α (Homo sapiens, UniProt P42336); assay: PI3K-alpha fluorescence polarization assay; settings: read-out: IC50 PI3Kα
PI3K-α, sequence (P42336 whole entry, species assumed): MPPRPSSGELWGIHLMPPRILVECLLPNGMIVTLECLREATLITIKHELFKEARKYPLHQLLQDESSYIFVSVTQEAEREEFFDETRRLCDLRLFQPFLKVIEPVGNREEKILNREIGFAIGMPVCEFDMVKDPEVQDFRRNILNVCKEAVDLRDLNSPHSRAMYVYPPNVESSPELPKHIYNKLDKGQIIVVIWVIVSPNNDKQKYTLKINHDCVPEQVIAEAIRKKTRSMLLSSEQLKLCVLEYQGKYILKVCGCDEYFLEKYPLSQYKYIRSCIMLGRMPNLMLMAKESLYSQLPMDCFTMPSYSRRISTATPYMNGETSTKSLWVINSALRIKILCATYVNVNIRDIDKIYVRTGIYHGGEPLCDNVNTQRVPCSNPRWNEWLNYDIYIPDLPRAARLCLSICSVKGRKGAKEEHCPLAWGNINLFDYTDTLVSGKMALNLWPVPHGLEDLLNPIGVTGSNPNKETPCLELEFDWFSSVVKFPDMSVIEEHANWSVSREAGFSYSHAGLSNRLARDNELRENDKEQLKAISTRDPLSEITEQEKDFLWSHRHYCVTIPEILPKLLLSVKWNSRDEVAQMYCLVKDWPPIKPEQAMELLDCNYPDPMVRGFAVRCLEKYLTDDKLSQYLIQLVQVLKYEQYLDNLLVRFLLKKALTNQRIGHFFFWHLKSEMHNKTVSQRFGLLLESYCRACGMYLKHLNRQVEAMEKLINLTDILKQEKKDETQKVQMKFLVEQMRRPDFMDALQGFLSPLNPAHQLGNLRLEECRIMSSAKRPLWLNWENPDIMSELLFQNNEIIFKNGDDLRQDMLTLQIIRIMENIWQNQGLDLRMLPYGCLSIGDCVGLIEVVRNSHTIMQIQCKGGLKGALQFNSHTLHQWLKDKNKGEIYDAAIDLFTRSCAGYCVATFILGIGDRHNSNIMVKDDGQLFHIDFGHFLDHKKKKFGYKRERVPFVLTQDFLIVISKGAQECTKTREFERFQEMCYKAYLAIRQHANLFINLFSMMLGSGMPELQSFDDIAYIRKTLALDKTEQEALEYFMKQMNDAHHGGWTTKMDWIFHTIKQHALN
PI3K-α, sequence (P27986 whole entry partner, species assumed): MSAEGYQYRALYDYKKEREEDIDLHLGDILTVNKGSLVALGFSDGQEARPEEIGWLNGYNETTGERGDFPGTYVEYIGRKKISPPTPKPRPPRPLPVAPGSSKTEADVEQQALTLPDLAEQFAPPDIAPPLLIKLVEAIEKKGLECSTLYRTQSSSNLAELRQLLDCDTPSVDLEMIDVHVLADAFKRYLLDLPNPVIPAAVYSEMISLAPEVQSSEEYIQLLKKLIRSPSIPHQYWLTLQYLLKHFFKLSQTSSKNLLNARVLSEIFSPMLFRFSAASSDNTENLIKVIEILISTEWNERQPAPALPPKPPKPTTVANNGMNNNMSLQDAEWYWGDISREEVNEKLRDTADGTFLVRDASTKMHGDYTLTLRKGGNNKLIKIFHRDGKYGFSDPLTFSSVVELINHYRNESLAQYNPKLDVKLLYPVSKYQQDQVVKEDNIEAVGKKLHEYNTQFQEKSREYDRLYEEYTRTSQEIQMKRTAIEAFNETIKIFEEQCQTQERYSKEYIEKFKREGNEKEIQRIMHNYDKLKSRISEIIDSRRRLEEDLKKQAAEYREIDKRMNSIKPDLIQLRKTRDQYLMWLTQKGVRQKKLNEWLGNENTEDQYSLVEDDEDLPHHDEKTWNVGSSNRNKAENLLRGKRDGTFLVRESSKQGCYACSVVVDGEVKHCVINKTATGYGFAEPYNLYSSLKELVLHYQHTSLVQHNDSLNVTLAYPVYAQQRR

PI3K-γ = PI3K-γ (Homo sapiens, UniProt P48736); assay: PI3K-gamma fluorescence polarization assay; settings: read-out: IC50 PI3Kγ
PI3K-γ, sequence (P48736 whole entry, species assumed): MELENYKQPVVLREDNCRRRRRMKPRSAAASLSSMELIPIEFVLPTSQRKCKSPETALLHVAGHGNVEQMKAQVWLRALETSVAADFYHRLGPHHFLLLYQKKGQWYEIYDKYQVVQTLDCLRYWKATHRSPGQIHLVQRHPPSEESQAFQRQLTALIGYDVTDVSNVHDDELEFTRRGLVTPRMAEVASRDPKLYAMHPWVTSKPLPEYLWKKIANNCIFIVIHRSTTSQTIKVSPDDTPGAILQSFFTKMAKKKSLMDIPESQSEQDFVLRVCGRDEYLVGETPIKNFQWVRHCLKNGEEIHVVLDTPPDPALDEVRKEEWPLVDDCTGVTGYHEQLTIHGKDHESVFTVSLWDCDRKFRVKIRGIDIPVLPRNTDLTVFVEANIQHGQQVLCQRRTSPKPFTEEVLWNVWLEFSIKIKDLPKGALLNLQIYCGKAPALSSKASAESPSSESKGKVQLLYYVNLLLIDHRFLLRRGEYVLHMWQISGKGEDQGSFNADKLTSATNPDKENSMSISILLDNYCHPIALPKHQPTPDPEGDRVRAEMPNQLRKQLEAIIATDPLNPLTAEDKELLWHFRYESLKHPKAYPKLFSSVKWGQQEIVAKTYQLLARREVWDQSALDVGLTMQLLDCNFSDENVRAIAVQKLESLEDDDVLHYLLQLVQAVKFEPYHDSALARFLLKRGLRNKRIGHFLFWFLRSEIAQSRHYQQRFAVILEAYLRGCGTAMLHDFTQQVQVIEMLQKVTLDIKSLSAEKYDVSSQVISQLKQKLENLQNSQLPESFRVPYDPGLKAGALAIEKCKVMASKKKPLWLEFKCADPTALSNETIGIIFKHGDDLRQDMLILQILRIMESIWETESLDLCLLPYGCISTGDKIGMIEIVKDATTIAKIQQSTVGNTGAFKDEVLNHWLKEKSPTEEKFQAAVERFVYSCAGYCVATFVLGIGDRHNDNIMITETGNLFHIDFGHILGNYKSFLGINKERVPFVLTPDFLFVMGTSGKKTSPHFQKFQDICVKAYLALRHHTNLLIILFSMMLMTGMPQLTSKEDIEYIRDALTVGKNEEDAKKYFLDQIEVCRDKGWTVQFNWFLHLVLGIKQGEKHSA

[3] = MDA-MB-361, 72 h, MTS cell growth assay, three days after drug treatment
[4] = MTS cell growth assay, three days after drug treatment
[5] = 72 h, MTS cell growth assay, three days after drug treatment, MDA-MB-361 cells
[6] = MTS cell growth assay, three days after drug treatment, PC3-mm2 cells
[7] = MDA-MB-361, 72 h, MTS cell growth assay, three days after drug treatment, MDA-MB-361 cells

Compound	pIC50 (Human mTOR (FLAG-TOR); read-out: IC50 mTOR)	pIC50 [1, 3]	pIC50 [2, 4]	pIC50 (PI3K-α)	pIC50 (PI3K-γ)	pIC50 [2, 6]	also measured
O=C(Nc1ccc(C(=O)NCCN2CCCC2)cc1)Nc1ccc(-c2nc(N3CCOCC3)nc(N3C4CCC3COC4)n2)cc1 [Example 758, 4-[({4-[4-morpholin-4-yl-6-(3-oxa-8-azabicyclo[3.2.1]oct-8-yl)-1,3,5-triazin-2-yl]phenyl}carbamoyl)amino]-N-(2-pyrrolidin-1-ylethyl)benzamide]	9.77	–	–	8.70	7.80	7.85	pIC50 [1, 5]: 8.52
O=C(Nc1ccc(C(=O)N2CCOCC2)cc1)Nc1ccc(-c2nc(N3CCOCC3)nc(N3C4CCC3COC4)n2)cc1 [Example 763, 1-[4-(morpholin-4-ylcarbonyl)phenyl]-3-{4-[4-morpholin-4-yl-6-(3-oxa-8-azabicyclo[3.2.1]oct-8-yl)-1,3,5-triazin-2-yl]phenyl}urea]	9.35	–	–	8.52	7.62	8.15	pIC50 [1, 7]: 8.40
CCc1nc(-c2ccc(NC(=O)Nc3ccc(C(=O)N4CCC(c5ccccc5)CC4)cc3)cc2)nc(N2CCOCC2)n1 [Example 320, 1-[4-(4-ethyl-6-morpholin-4-yl-1,3,5-triazin-2-yl)phenyl]-3-{4-[(4-phenylpiperidin-1-yl)carbonyl]phenyl}urea]	7.89	7.49	7.13	8.48	7.60	–	–
CC(C)Cc1nc(-c2ccc(NC(=O)Nc3ccc(C(=O)N4CCN(C)CC4)cc3)cc2)nc(N2CCOCC2)n1 [Example 322, 1-{4-[(4-methylpiperazin-1-yl)carbonyl]phenyl}-3-{4-[4-(2-methylpropyl)-6-morpholin-4-yl-1,3,5-triazin-2-yl]phenyl}urea]	8.22	7.89	7.07	8.62	7.52	–	–
CN(C)CCCc1nc(-c2ccc(NC(=O)Nc3ccncc3)cc2)nc(N2CCOCC2)n1 [Example 274, 1-(4-{4-[3-(dimethylamino)propyl]-6-morpholin-4-yl-1,3,5-triazin-2-yl}phenyl)-3-pyridin-4-ylurea]	7.23	6.00	5.83	7.47	6.21	5.83	pIC50 (PI3K-α; listed as 731): 7.48; pIC50 (PI3K-γ; listed as 731): 6.38
CC(C)N1CCN(C(=O)c2ccc(NC(=O)Nc3ccc(-c4nc(N5CCC5)nc(N5CCOCC5)n4)cc3)cc2)CC1 [Example 492, 1-[4-(4-azetidin-1-yl-6-morpholin-4-yl-1,3,5-triazin-2-yl)phenyl]-3-(4-{[4-(1-methylethyl)piperazin-1-yl]carbonyl}phenyl)urea]	7.74	–	–	–	7.46	7.24	pIC50 [1, 7]: 7.59
O=C(Nc1ccc(C(=O)NCCN2CCOCC2)cc1)Nc1ccc(-c2nc(N3CCOCC3)nc(N3C4CCC3COC4)n2)cc1 [Example 702, N-(2-morpholin-4-ylethyl)-4-[({4-[4-morpholin-4-yl-6-(3-oxa-8-azabicyclo[3.2.1]oct-8-yl)-1,3,5-triazin-2-yl]phenyl}carbamoyl)amino]benzamide]	9.26	–	–	–	6.90	7.85	pIC50 [1, 5]: 8.40
CN1CCN(C(=O)c2ccc(NC(=O)Nc3ccc(-c4nc(N5CCCOCC5)nc(N5CCOCC5)n4)cc3)cc2)CC1 [Example 573, 1-{4-[(4-methylpiperazin-1-yl)carbonyl]phenyl}-3-{4-[4-morpholin-4-yl-6-(1,4-oxazepan-4-yl)-1,3,5-triazin-2-yl]phenyl}urea]	8.40	–	–	–	7.19	6.69	pIC50 [1, 7]: 7.00
COc1nc(-c2ccc(NC(=O)Nc3ccc(C(=O)NCCN(C)C)cc3)cc2)nc(N2CCOCC2)n1 [Example 244, N-[2-(dimethylamino)ethyl]-4-({[4-(4-methoxy-6-morpholin-4-yl-1,3,5-triazin-2-yl)phenyl]carbamoyl}amino)benzamide]	–	–	–	9.00	–	–	pIC50 (Human mTOR (FLAG-TOR); IC50 mTOR): 8.29 and 8.25; pIC50 ([1]; MDA-MB-361, 72 h): > 7.51; pIC50 [2]: 7.15; pIC50 (PI3K-α; listed as 721): 9.22
O=C(Nc1ccc(C(=O)NCCN2CCCCC2)cc1)Nc1ccc(-c2nc(O[C@H]3CCOC3)nc(N3CCOCC3)n2)cc1 [Example 520, 4-{[(4-{4-morpholin-4-yl-6-[(3S)-tetrahydrofuran-3-yloxy]-1,3,5-triazin-2-yl}phenyl)carbamoyl]amino}-N-(2-piperidin-1-ylethyl)benzamide]	–	–	–	8.85	–	7.74	pIC50 (Human mTOR (FLAG-TOR); IC50 mTOR): 9.42; pIC50 ([1]; MDA-MB-361, 72 h): 8.30
CC(C)N1CCN(C(=O)c2ccc(NC(=O)Nc3ccc(-c4nc(N5CCOCC5)nc(N5C6CCCC5COC6)n4)cc3)cc2)CC1 [Example 805, 1-(4-{[4-(1-methylethyl)piperazin-1-yl]carbonyl}phenyl)-3-{4-[4-morpholin-4-yl-6-(3-oxa-9-azabicyclo[3.3.1]non-9-yl)-1,3,5-triazin-2-yl]phenyl}urea]	9.38	–	–	–	7.19	–	pIC50 ([1]; MDA-MB-361, 72 h, MDA-MB-361 cells, MTS, three days after drug treatment): 8.52; pIC50 ([2]; PC3-mm2 cells, MTS, three days after drug treatment): 7.89

Now from value to molecule, other results behind:

pIC50 (Human mTOR (FLAG-TOR); read-out: IC50 mTOR)	pIC50 [1, 3]	pIC50 [2, 4]	pIC50 (PI3K-α)	pIC50 (PI3K-γ)	pIC50 [2, 6]	Compound	also measured
8.54	8.40	7.28	8.52	7.85	–	CC(C)c1nc(-c2ccc(NC(=O)Nc3ccc(C(=O)N4CCC(N(C)C)CC4)cc3)cc2)nc(N2CCOCC2)n1 [Example 308, 1-(4-{[4-(dimethylamino)piperidin-1-yl]carbonyl}phenyl)-3-{4-[4-(1-methylethyl)-6-morpholin-4-yl-1,3,5-triazin-2-yl]phenyl}urea]	–
9.00	7.02	7.03	7.36	6.84	–	C=C(OCC)c1nc(-c2ccc(NC(=O)Nc3ccncc3)cc2)nc(N2CCOCC2)n1 [Example 199, 1-{4-[4-(1-ethoxyvinyl)-6-morpholin-4-yl-1,3,5-triazin-2-yl]phenyl}-3-pyridin-4-ylurea]	–
7.92	6.90	6.44	7.40	6.90	–	CC(C)c1nc(-c2ccc(NC(=O)Nc3ccc(C(=O)NC4CCC4)cc3)cc2)nc(N2CCOCC2)n1 [Example 311, N-cyclobutyl-4-[({4-[4-(1-methylethyl)-6-morpholin-4-yl-1,3,5-triazin-2-yl]phenyl}carbamoyl)amino]benzamide]	–
8.30	–	–	8.05	6.97	6.53	CN(C)CCNC(=O)c1ccc(NC(=O)Nc2ccc(-c3nc(N4CCCC4)nc(N4CCOCC4)n3)cc2)cc1 [Example 608, N-[2-(dimethylamino)ethyl]-4-({[4-(4-morpholin-4-yl-6-pyrrolidin-1-yl-1,3,5-triazin-2-yl)phenyl]carbamoyl}amino)benzamide]	pIC50 [1, 5]: 7.28
7.23	–	–	7.98	6.84	< 6.00	CN(C)CCN(C)C(=O)c1ccc(NC(=O)Nc2ccc(-c3nc(NS(=O)(=O)c4ccccc4)nc(N4CCOCC4)n3)cc2)cc1 [Example 787, N-[2-(dimethylamino)ethyl]-N-methyl-4-{[(4-{4-morpholin-4-yl-6-[(phenylsulfonyl)amino]-1,3,5-triazin-2-yl}phenyl)carbamoyl]amino}benzamide]	pIC50 [1, 5]: < 6.00
